tested on: Plasmodium falciparum; experiment: GSK_TCMDC: Inhibition of Plasmodium falciparum 3D7 in whole erythrocytes, using parasite LDH activity as an index of growth.; assay type: functional, organism-based; conditions: not given

Compound	XC50 [nM]
Cc1ccc(C)c(C=CC(=O)NC2CCC(CN3CCC(c4c[nH]c5ccccc45)CC3)CC2)c1 (stereo not given)	698

same assay, conditions: Plasmodium falciparum, 3D7

Compound	XC50 [nM]
N#Cc1ccc(-c2ccc(C(=O)NCCCCN3CCC(c4cn(CCO)c5ccccc45)CC3)cc2)cc1	954
O=C(NCCCCN1CCC(c2c[nH]c3ccccc23)CC1)c1sc(-c2ccc(C(F)(F)F)cc2)nc1CO	1200
Clc1ccc(Cl)c2[nH]c(CNCCCNc3nc4ccccc4[nH]3)cc12	163
CNC(=N)c1ccc(NC(=O)Nc2ccc(C(=N)NC)cc2)cc1	577
OCCN1CCN(Cc2ccc(-c3cccc(-c4nc5cc(F)ccc5[nH]4)c3)cc2)CC1	608
N#CN1CC[C@H](CS(=O)(=O)c2cccc(Br)c2)C1	874
CCCC(C)NC(=O)c1cnn(-c2ccc(C(C)(C)C)cc2)c1OCc1ccc(Br)cc1 (stereo not given)	1060
CNC(=O)c1cc(S(=O)(=O)Nc2ccc(OC)cc2)cs1	1130
CCCC(C)Nc1nc(C)cc(N[C@@H](Cc2ccccc2)C(=O)Nc2ccccc2)n1 (stereo not given in full)	863
O=C(Nc1ccc(Br)c(Cl)c1)c1cc([N+](=O)[O-])cc2cn[nH]c12	1060
N#Cc1ccc2c(c1)CCN(CCC1CCC(NC(=O)/C=C/c3ccc4ccccc4c3)CC1)CC2 (stereo not given)	724
O=C(Nc1ccc(C(F)(F)F)cc1)c1ccc(S(=O)(=O)NC2CCN(CC3CCCCC3)CC2)cc1	731
Cc1cc(N)nc2cc(CNCCc3ccccc3Br)ccc12	129
Cc1cc(N/N=C/c2ccccc2[N+](=O)[O-])c2ccc(F)cc2n1	350
Nc1nc(N)c2c(Cc3ccccc3)cccc2n1	828
O=C1CCCN1CCCNCc1cccc(-c2ccc(-c3nc4cc(C(F)(F)F)ccc4[nH]3)cc2)c1	300
COc1ccc2cc(CNCCCCCCNCc3ccc4cc(OC)ccc4c3)ccc2c1	624
O=C(CN1CCC2(CCC1=O)CC(=O)c1ccccc1O2)NCCN1CCOCC1 (stereo not given)	221
CC(C)(c1ccccc1)c1ccc(O)c(CN2CCOCC2)c1	984
Cc1ccc(C)c(C=CC(=O)NC2CCC(CN3CCC(c4c[nH]c5ccccc45)CC3)CC2)c1 (stereo not given)	765
N#Cc1ccc(N(CC(=O)NCCc2ccccc2)CC2CC2)c2ccccc12	734
c1ccc2c(C3CCN(CCCCOc4ccc5c(c4)CCN(CC4CC4)CC5)CC3)c[nH]c2c1	982
CN1CCC[C@H]1COc1ccc(CN2CC[C@H](NC(=O)c3ccc(Cl)c(Cl)c3)C2)cc1Br	983
COc1ccc(-c2cccc(NC(=O)c3cccc(Cl)c3)c2)cc1CN(C)CCN(C)C	813
CN(C)CCCNc1c2ccccc2nc2ccccc12	1040

Compound	XC50 [nM]
Cc1cccc2c3c([nH]c12)C1(CCN(Cc2ccccc2)CC1)NC(C(=O)NCc1ccccc1)C3 (stereo not given)	1370
COc1cccc(C2C(C(=O)Nc3ccccc3)=C(C)N=c3sc(=Cc4ccc(O)cc4)c(=O)n32)c1 (stereo not given)	579
Cc1cc(NC(=O)Nc2ccc(N(C)C)cc2)c2cc(Cl)ccc2n1	857
CN(C)CCN(Cc1ccccc1)c1ccc([N+](=O)[O-])cc1C(F)(F)F	776
COCn1ccc2c3c(N)nc(N)nc3ccc21	990
O=C(C=Cc1ccc(Cl)c(Cl)c1)NCCCCCN1CCCC(CCCNC(=O)c2cccs2)C1 (stereo not given)	1300
Cn1cnc(CCNC(=O)c2ccc(-c3cccc(-c4nc5cc(C(F)(F)F)ccc5[nH]4)c3)cc2)c1	726
Cc1noc(C)c1-c1ccc(C(=C2CCCCCC2)c2ccc(O)cc2)cc1	189
CC(=O)Nc1ncc(C(=O)Nc2cccc(-c3cccc(-c4nc5cc(F)ccc5[nH]4)c3)c2)s1	454
O=C(NC1CCC(N2CCCC(OCc3ccccc3)C2)CC1)c1cc2ccccc2[nH]1 (stereo not given)	1210
COc1ccc2nccc([C@@H](O)CN3CCC(NC(=O)/C=C/c4c[nH]c5c(C)cccc45)CC3)c2c1	135
CCOc1cc(NCCCNc2ncc([N+](=O)[O-])cc2C)nc2ccccc12	692
CCn1ccc2c(N3CCCS3(=O)=O)cc(C(=O)N[C@@H](Cc3ccccc3)[C@H](O)CNC(C)(C)c3cccc(OC)c3)cc21	41.6
O=C(NC1CCN(CCC(NC(=O)c2ccccc2)c2ccc(Cl)c(Cl)c2)CC1)c1ccc(Cl)cc1 (stereo not given)	1070
Cc1ccc(C)c(Sc2ccc(NC(=O)CN3CCN(C(=O)c4ccco4)CC3)cc2)c1	716
COc1cccc(OC2CCN(C(=O)c3cc(C(C)(C)C)nn3Cc3ccccc3)CC2)c1	254
C=CCOc1ccc2ccccc2c1CNCCCCCCNCc1c(OCC=C)ccc2ccccc12	859
O=S(=O)(c1c(Cl)cccc1Cl)N1CCCCC(c2ccc(C(F)(F)F)cc2)=N1	126
CC(C)NCc1cccc(-c2cccc(NC(=O)c3ccc(C#N)cc3)c2)c1	646
CCc1cc2c(=O)c(-c3nc(C)cs3)c([C@H](N)Cc3ccc(O)cc3)oc2cc1O	902
CCOc1ccc(C2CCN(CCCCNC(=O)c3ccc(NC(=O)c4ccc(Cl)cc4)cc3)CC2)c(OCC)c1	677
O=C(Nc1ccc2c(c1)CCN2C1CCN(Cc2cc(F)cc(F)c2F)C1)c1ccco1 (stereo not given)	590
COc1ccc2nccc([C@@H](O)CN3CCC(NCc4nc5c(OCc6ccccc6)cccc5[nH]4)CC3)c2c1	178
COc1cc(C2CCN(CCCCNC(=O)c3ccc(NC(=O)c4ccc(Cl)c(Cl)c4)cc3)CC2)ccc1OC(C)C	316
COc1ccc(-c2cccc(NC(=O)c3ccc(Cl)cc3)c2)cc1CN1CCCN(C)CC1	387

Compound	XC50 [nM]
O=C(Nc1ccc2oc(-c3ccc(Br)cc3)nc2c1)c1ccc([N+](=O)[O-])o1	968
COc1ccc(CCNCCCCNCCc2ccc(OC)c3ccccc23)c2ccccc12	453
CN(C)CCOc1ccnc2ccc(NC(=O)Cc3ccc(-c4ccncc4)c4ccccc34)cc12	277
Cc1cc(C(=O)OCC(N)=O)c(C)n1-c1ccc(F)cc1	331
N#Cc1ccc(N2CCN(Cc3ccc(-c4ccc(-c5nc6cc(C(F)(F)F)ccc6[nH]5)cc4)cc3)CC2)nc1	963
Cc1nn(-c2ccccc2)nc1C(=O)N(Cc1ccc(-c2ccc(CNCCc3ccc(S(C)(=O)=O)cc3)cn2)cc1)C(C)CN(C)C (stereo not given)	682
O=C(NCCc1ccccc1)[C@H](Cc1ccccc1)Nc1ccnc(NCC2CCCCC2)n1	1380
CCOc1ccccc1CNc1nccc(NCc2ccccc2OC)n1	1490
Cc1ccc(Nc2nc(N/N=C/c3cccc(O)c3)nc(Nc3ccc([N+](=O)[O-])cc3)n2)cc1C	735
CC(C)CCN1CCCN(Cc2ccc(C(=O)NCc3ccc(Cl)cc3)cc2)CC1	1010
CCCCCN1CCCN(Cc2cccc(NC(=O)c3ccc(-c4ccccc4)cc3)c2)CC1	697
CC(C)(C)c1nn(-c2ccccc2)c2[nH]c(=O)c(CNCCc3ccccc3)cc12	866
COC(=O)Cn1c(C2CCN(CC3CCN(C(=O)/C=C/c4ccc(Cl)c(Cl)c4)CC3)CC2)nc2ccccc21	1200
COc1nc2c(CCN3CC[C@H](NCc4cc(C#N)c5c(c4)OCCO5)[C@H](O)C3)ccnc2cc1F	783
O=C(Nc1ccc(OC2CCN(Cc3ccco3)CC2)c(Cl)c1)c1ccc2ncccc2c1	949
CCOC(=O)c1c(C)noc1Nc1cccc(C)c1C	416
N#Cc1cccc(C(=O)Nc2ccc(-c3ccc(CN4CCCC4)cc3)cc2)c1	1150
COc1cc(-c2nc3c4ccccc4c4ccccc4c3[nH]2)cc(OC)c1OC	848
c1cc(CNCCc2ccncc2)cc(-c2ccc(-c3nc4ccccc4[nH]3)s2)c1	336
CCC(CO)NCC(O)Cn1c2ccc(Cl)cc2c2cc(Cl)ccc21 (stereo not given)	768
NCCNc1ccc([N+](=O)[O-])cc1C(=O)Nc1cccc(Cl)c1	1260
CC1C(c2cccc(Cl)c2)OCC(C)(C)N1C(=O)CCN1CCCCC1 (stereo not given)	923
O=C(Nc1cccc(CN2CCCN(Cc3cccc(O)c3)CC2)c1)c1ccc2ccccc2c1	786
CC(C)(C)c1ccc(CN2CCC(NC(=O)c3ccc(-c4cccc(F)c4)s3)CC2)cc1	1090
CC1CCCC(Nc2noc(-c3sccc3Br)n2)C1 (stereo not given)	689

Compound	XC50 [nM]
COC(=O)c1cc(NC(=O)Nc2ccc(Cn3ncc(N4CCCNCC4)c(Cl)c3=O)cc2)cc(C(=O)OC)c1	708
Cc1cc(N/N=C/c2ccc([N+](=O)[O-])cc2)c2ccc(F)cc2n1	888
CCCCCCOc1ccc(/C(N)=N\Cc2ccccc2)c2c1CCCC2	1270
O=C(Nc1ccc(Cn2ncc(N3CCCNCC3)c(Cl)c2=O)cc1)Nc1cccc(SC(F)(F)F)c1	675
COc1ccc(S(=O)(=O)NC2CCN(CCCOc3ccnc4cc(Cl)ccc34)C2)cc1OC (stereo not given)	1050
Nc1nc(N)c2c(ccc3c2ccn3Cc2ccc(F)cc2)n1	6.53
Cc1ccc(CC(C)(C)NCC(O)c2cccc(C(F)(F)F)c2)cc1 (stereo not given)	836
CN(C)CCC=C1c2ccccc2Sc2c(O)cc(Cl)cc21	277
CC(NC(=O)c1ccc(O)c(-c2ccc(Cl)c(Cl)c2)c1)C(=O)NC1CCCCC1 (stereo not given)	844
Cc1cc(NCCc2ccccc2)nc(NC(=N)Nc2cccc(Cl)c2)n1	181
CC(=O)Nc1nc(C(=O)Nc2cccc(-c3ccc4c(cnn4CC4CC4)c3)c2)cs1	735
O=C(Nc1ccc(Cl)cc1Cl)NC1CCN(CCCCCNC(=O)C2CC2c2ccc(Cl)c(Cl)c2)CC1 (stereo not given)	367
CN(C)C(CNC(=O)c1cc(-c2ccncc2)c(-c2cc3ccccc3[nH]2)o1)c1ccccc1 (stereo not given)	841
Cc1ccnc(Nc2nc(-c3ccccn3)cs2)c1	998
Cc1noc(C)c1-c1cccc(CNCc2ccc(-c3ccc(-c4nc5ccccc5[nH]4)s3)cc2)c1	556
O=C1CCCN1CCCNCc1ccc(-c2cccc(-c3nc4cc(F)ccc4[nH]3)c2)cc1	659
CC(C)NCC(=O)Nc1cccc(C(=O)Nc2cccc(C(F)(F)F)c2)c1	273
CC(=O)c1cccc(Nc2nc3ccc(OCc4cc(Cl)cc(Cl)c4)c(C#N)c3[nH]2)c1	869
COCCN(C)c1ccc(C(=O)Nc2ccccc2)cc1NS(=O)(=O)Cc1ccccc1	571
COc1ccc(CNc2nc(NCc3ccccc3)c3cc(OC)c(OC)cc3n2)cc1OC	540
CN1CCN=C1c1ccc(NC(=O)Nc2ccc(C3=NCCN3C)cc2)cc1	379
C[C@H](Cc1ccc(C[C@@H](C)NCC(O)c2cc(Cl)c(N)c(Cl)c2)cc1)NCC(O)c1cc(Cl)c(N)c(Cl)c1 (stereo not given in full)	893
O=C(NCCCCN1CCC(c2nc3ccccc3s2)CC1)c1cc2ccccc2[nH]1	1020
O=C(Oc1ccc(Cl)cc1C(=O)Nc1ccc([N+](=O)[O-])cc1Cl)c1ccccc1	912

Reference: ChEMBL document CHEMBL1157539, “Thousands of chemical starting points for antimalarial lead identification” (Nature, 2010)
